These results are taken from ChEMBL document CHEMBL5604063, “ASAP - DENV-2 NS2B-NS3 protease fluorescence dose response” (2024).

The target in assay [1] is T1, Genome polyprotein (dengue virus type 2, UniProt P29990). The format is functional, Thailand/16681/1984.
The target in assay [2] is T1, Genome polyprotein. The format is functional, Thailand/16681/1984. This is another data set of the same source.

Values joined by “and” are separate entries in the source; they are usually repeats but may differ in a detail not shown here. Identical values can stand only once.

T1 sequence (P29990 1346-1475 limits assumed): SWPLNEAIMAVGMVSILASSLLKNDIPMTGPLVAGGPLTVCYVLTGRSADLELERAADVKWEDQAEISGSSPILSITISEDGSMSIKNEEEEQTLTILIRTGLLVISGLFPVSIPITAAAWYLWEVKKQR
T1 sequence (P29990 1476-2093 limits assumed): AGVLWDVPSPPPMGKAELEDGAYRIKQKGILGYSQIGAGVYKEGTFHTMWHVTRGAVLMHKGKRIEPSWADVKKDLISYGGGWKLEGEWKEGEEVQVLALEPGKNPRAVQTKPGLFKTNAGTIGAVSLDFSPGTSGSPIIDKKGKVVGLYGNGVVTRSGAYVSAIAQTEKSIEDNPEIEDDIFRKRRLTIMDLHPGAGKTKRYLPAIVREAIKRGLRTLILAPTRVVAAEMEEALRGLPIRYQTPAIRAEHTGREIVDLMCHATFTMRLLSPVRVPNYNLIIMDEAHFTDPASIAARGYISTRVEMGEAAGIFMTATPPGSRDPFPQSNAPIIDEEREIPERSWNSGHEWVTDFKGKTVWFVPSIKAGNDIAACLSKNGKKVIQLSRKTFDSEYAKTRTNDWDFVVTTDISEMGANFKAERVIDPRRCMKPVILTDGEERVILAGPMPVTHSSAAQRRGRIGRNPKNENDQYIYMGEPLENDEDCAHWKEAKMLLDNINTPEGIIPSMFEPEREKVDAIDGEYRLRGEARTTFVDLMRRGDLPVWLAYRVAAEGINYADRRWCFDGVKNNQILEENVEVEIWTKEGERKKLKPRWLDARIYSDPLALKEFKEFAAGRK

Consider `O=C(Nc1ccc2c(c1)CNC2)c1cc(Cl)cc2cn[nH]c12`, for which the figures for the IC50 on Genome polyprotein [1] and against Genome polyprotein [2] were more than 99.5 µM and more than 100 µM, respectively.

For the compound `O=C(Cc1ccc2ncsc2c1)Nc1ccc2c(c1)CNC2`, the values for the IC50 against Genome polyprotein [1] and on Genome polyprotein [2] were more than 99.5 µM and more than 100 µM, respectively.

Regarding `O=C(Nc1ccc2c(c1)CNC2)c1ccc2sncc2c1`, the half-maximal inhibitory concentration (IC50) was more than 99.5 µM on Genome polyprotein [1] and more than 100 µM on Genome polyprotein [2].

For `O=C(Nc1ccc2c(c1)CNC2)c1cc(Cl)ccc1-n1cncn1`, the IC50 was more than 99.5 µM at Genome polyprotein [1] and more than 100 µM against Genome polyprotein [2].

For the compound `Cc1nc(C2CC2)[nH]c1C(=O)Nc1cc(CCCN)ccn1`, the IC50 was more than 99.5 µM against Genome polyprotein [1] and more than 100 µM at Genome polyprotein [2].

For the compound `CC(C)c1nccn1C[C@H]1CCCN1C(=O)Nc1ccc2c(c1)CNC2`, the IC50 was more than 99.5 µM against Genome polyprotein [1] and more than 100 µM at Genome polyprotein [2].

In the case of `Cc1c(C(=O)Nc2cc(-c3cccnc3)ccn2)cc(C2CC2)n1C`, the half-maximal inhibitory concentration (IC50) against Genome polyprotein [1] is 9.09 µM and 8.4 µM and 6.31 µM; on Genome polyprotein [2], 6.7 µM and 9.67 µM.

Turning to `O=C(Nc1ccc2c(c1)CNC2)c1cc(Cl)nc2[nH]ccc12`, the 50% inhibitory concentration (IC50) is more than 99.5 µM against Genome polyprotein [1] and more than 100 µM against Genome polyprotein [2].

In the case of `CC1CCN(CC[C@H]2CCCN2C(=O)Nc2ccc3c(c2)CNC3)CC1`, the IC50 is more than 99.5 µM against Genome polyprotein [1] and more than 100 µM against Genome polyprotein [2].

For `O=C(Nc1ccc2c(c1)CNC2)c1cc2ncccc2s1`, the values for the concentration for half-maximal inhibition (IC50) against Genome polyprotein [1] and against Genome polyprotein [2] were more than 99.5 µM and more than 100 µM, respectively.

Turning to `CC(C)(C)OC(=O)N1Cc2cc(NC(=O)c3cc(Cl)cc4[nH]ncc34)cc(Br)c2C1`, the IC50 on Genome polyprotein [1] is more than 99.5 µM; against Genome polyprotein [2], more than 100 µM.

Take `O=C(Nc1ccc2c(c1)CNC2)c1cccc(O)c1`: the 50% inhibitory concentration (IC50) was more than 99.5 µM against Genome polyprotein [1] and more than 100 µM at Genome polyprotein [2].

Consider `O=C(Nc1ccc2c(c1)CNC2)c1nc(Cl)nc2[nH]ccc12`, for which the IC50 at Genome polyprotein [1] was more than 99.5 µM; against Genome polyprotein [2] it was more than 100 µM.

For `O=C(Nc1ccc2c(c1)CNC2)c1cc(C(F)(F)F)nc2[nH]ccc12`, the IC50 against Genome polyprotein [1] was more than 99.5 µM; against Genome polyprotein [2], more than 100 µM.

For the compound `CC1=CC[C@H](c2cccc(-c3nn[nH]n3)c2)Nc2cc(Cl)ccc21`, the results for the IC50 at Genome polyprotein [1] and against Genome polyprotein [2] were 69.6 µM and 33.9 µM, respectively.

For the compound `Cc1cc(C)n([C@H]2CCCN(C(=O)Nc3ccc4c(c3)CNC4)C2)n1`, the IC50 at Genome polyprotein [1] is more than 99.5 µM; at Genome polyprotein [2], more than 100 µM.

For the compound `O=C(Nc1ccc2c(c1)CNC2)c1ncc(Cc2ccccc2)s1`, the 50% inhibitory concentration (IC50) against Genome polyprotein [1] was more than 99.5 µM; on Genome polyprotein [2], more than 100 µM.

`O=C(Nc1ccc2c(c1)CNC2)N1CCC[C@H]1c1cc(C(F)(F)F)no1`: the figures for the 50% inhibitory concentration (IC50) at Genome polyprotein [1] and against Genome polyprotein [2] were more than 99.5 µM and more than 100 µM, respectively.

For the compound `O=C(Nc1ccc2c(c1)CNC2)c1ccc2[nH]cnc2c1`, the half-maximal inhibitory concentration (IC50) is more than 99.5 µM against Genome polyprotein [1] and more than 100 µM against Genome polyprotein [2].

With `O=C(Nc1ccc2c(c1)CNC2)c1ccc2cc[nH]c2c1`, the results for the half-inhibitory concentration (IC50) on Genome polyprotein [1] and against Genome polyprotein [2] were more than 99.5 µM and more than 100 µM, respectively.

As to `NCc1cc(C=C2CC(C(=O)O)C2)cc(NC(=O)c2cc(Cl)cc(NC(=O)OCc3ccccc3)c2)c1` (stereo not drawn), the figures for the IC50 against Genome polyprotein [1] and on Genome polyprotein [2] were more than 99.5 µM and more than 100 µM, respectively.

Take `CC[C@H]1CN(C(=O)Nc2ccc3c(c2)CNC3)C[C@@H]1c1ccc(OC)cc1`: the figures for the half-maximal inhibitory concentration (IC50) on Genome polyprotein [1] and against Genome polyprotein [2] were more than 99.5 µM and more than 100 µM, respectively.

Consider `O=C(Nc1ccc2c(c1)CNC2)c1ccc(OC(F)(F)F)cc1`, for which the IC50 is more than 99.5 µM against Genome polyprotein [1] and more than 100 µM on Genome polyprotein [2].

As to `NCCCc1ccnc(NC(=O)c2cc(C3CC3)[nH]n2)c1`, the 50% inhibitory concentration (IC50) was more than 99.5 µM against Genome polyprotein [1] and more than 100 µM at Genome polyprotein [2].

For `O=C(Nc1ccc2c(c1)CNC2)c1cccc2ncccc12`, the IC50 on Genome polyprotein [1] is more than 99.5 µM; at Genome polyprotein [2], more than 100 µM.

`O=C(Nc1ccc2c(c1)CNC2)c1ccc2ncccc2c1`: the half-inhibitory concentration (IC50) against Genome polyprotein [1] is more than 99.5 µM; against Genome polyprotein [2], more than 100 µM.

On to `O=C(Nc1ccc2c(c1)CNC2)c1cc(Cl)cc2[nH]c(C3(n4ccnn4)CC3)nc12`, for which the results for the half-inhibitory concentration (IC50) against Genome polyprotein [1] and on Genome polyprotein [2] were more than 99.5 µM and more than 100 µM, respectively.

As for `Cc1csc(CO[C@H]2CCN(C(=O)Nc3ccc4c(c3)CNC4)C2)n1`, the IC50 against Genome polyprotein [1] is more than 99.5 µM; against Genome polyprotein [2], more than 100 µM.

For `Clc1cc([C@H](C#CC2CC2)Nc2ccc3c(c2)CNC3)c2cn[nH]c2c1`, the IC50 on Genome polyprotein [1] is more than 99.5 µM; against Genome polyprotein [2], more than 100 µM.

A word on the IC50: it is the concentration at which inhibition is half-maximal. A high value points to weaker potency.
